# In patent EP0438519B1, “THERAPEUTIC PEPTIDES” (The Administrators of The Tulane Educational Fund, priority 1988, dated 1998):
# System: bombesin-stimulated amylase secretion
# Assay: Bombesin-stimulated pancreatic amylase secretion in the rat
# Type: in vivo
substance,measurement,setting,value
D-Phe^6BN(6-13)methylester [I00008],duration of inhibition of the secretion of amylase,"5 nM of the analog, stimulated by 0.5 nM of bombesin, after bolus injection",150 min
same,effect on bombesin-stimulated amylase secretion,result in words (Fig. 3),potent antagonist
